The values below come from patent US10087165B2, “Fluoroquinolones and use thereof to treat bacterial infections” (UNIVERSITÉ PIERRE ET MARIE CURIE—PARIS 6 (UPMC), priority 2014, dated 2018).

Experiment [1] relates to M. tuberculosis H37Rv GyrA D94G. The format is cell-based.
The subject of experiment [2] is M. tuberculosis H37Rv GyrA A90V. Format: cell-based.
The subject of experiment [3] is M. tuberculosis H37Rv GyrB D500N. Format: cell-based.
Experiment [4] relates to multidrug-resistant M. tuberculosis clinical strain GV1503014223. The experiment can be described thus: microbe, parasite or virus in culture. The conditions noted are these: Mycobacterium tuberculosis; MDR clinical strain; Table 3. Format: cell-based.
Experiment [5] has as its system multidrug-resistant M. tuberculosis clinical strain KC1503006247. The experiment can be described thus: microbe, parasite or virus in culture. Particulars: Mycobacterium tuberculosis; MDR clinical strain; Table 3. The format is cell-based.
Experiment [6] relates to multidrug-resistant M. tuberculosis clinical strain XCC1503082245. As to the kind of experiment: microbe, parasite or virus in culture. Format: cell-based. The conditions noted are these: Mycobacterium tuberculosis; MDR clinical strain; Table 3.
Experiment [7] concerns M. tuberculosis H37Rv GyrA D94G. The conditions noted are these: Table 2, published previously (Poissy et al. 2010); cited from earlier work.
The subject of experiment [8] is M. tuberculosis H37Rv GyrA A90V. Particulars: Table 2, published previously (Poissy et al. 2010); cited from earlier work.
The subject of experiment [9] is quinolone-resistant M. tuberculosis strains (GyrB D500N, GyrA D94G and GyrA A90V strains). The format is cell-based.

Converted amounts (≈) assume the structure as drawn. Read-outs that look alike come from different tables or passages of the source.

Take `O=C(O)c1cn(C2CC2)c2cc(N3CCNCC3)c(F)cc2c1=O` [Ciprofloxacin, ciprofloxacin, reference compound]: the “MIC (M. tuberculosis) D94G” value in experiment [1] is at least 24 µM. Moreover, in [2], the “MIC (M. tuberculosis) A90V” value was at least 24 µM.

As for `CCCCCCCN1CCN(c2c(F)cc3c(=O)c(C(=O)O)cn(C4CC4)c3c2OC)CC1` [Compound 15, 1-cyclopropyl-6-fluoro-7-(4-heptylpiperazin-1-yl)-8-methoxy-4-oxo-1,4-dihydroquinoline-3-carboxylic acid], the “MIC M. tuberculosis H37Rv GyrA D94G” value in experiment [1] was 0.5 µM (≈ 0.23 µg/mL). The “MIC M. tuberculosis H37Rv GyrA A90V” value in [2] was determined as 2.2 µM (≈ 1.01 µg/mL). In experiment [3], the “MIC M. tuberculosis H37Rv GyrB D500N” value was determined as 2.2 µM (≈ 1.01 µg/mL). The MIC in experiment [4], in experiment [5] and in experiment [6] was 1 µM (≈ 0.46 µg/mL) each time.

Regarding `CCCCCCCCCN1CCN(c2c(F)cc3c(=O)c(C(=O)O)cn(C4CC4)c3c2OC)CC1` [Compound 17, 1-cyclopropyl-6-fluoro-8-methoxy-7-(4-nonylpiperazin-1-yl)-4-oxo-1,4-dihydroquinoline-3-carboxylic acid], the “MIC M. tuberculosis H37Rv GyrA D94G” value in experiment [1] turned out to be 2 µM (≈ 0.975 µg/mL). The “MIC M. tuberculosis H37Rv GyrA A90V” value in experiment [2] is 2 µM (≈ 0.975 µg/mL). For the same molecule, in experiment [3], the “MIC M. tuberculosis H37Rv GyrB D500N” value is 0.5 µM (≈ 0.244 µg/mL). Moreover, the MIC in experiment [4] is under 0.12 µM; in experiment [5], under 0.12 µM; in experiment [6], 1 µM (≈ 0.488 µg/mL).

Regarding `CCCCCCCCCCCN1CCN(c2c(F)cc3c(=O)c(C(=O)O)cn(C4CC4)c3c2OC)CC1` [Compound 19, 1-cyclopropyl-6-fluoro-8-methoxy-4-oxo-7-(4-undecylpiperazin-1-yl)-1,4-dihydroquinoline-3-carboxylic acid], the “MIC M. tuberculosis H37Rv GyrA D94G” value in [1] came out at 10 µM (≈ 5.16 µg/mL). Also, in experiment [2], the “MIC M. tuberculosis H37Rv GyrA A90V” value came to 10 µM (≈ 5.16 µg/mL). In experiment [3], the “MIC M. tuberculosis H37Rv GyrB D500N” value stood at 2 µM (≈ 1.03 µg/mL). Besides, the MIC in experiment [4] was found to be 0.5 µM (≈ 0.258 µg/mL); in experiment [5], 0.12 µM (≈ 0.0619 µg/mL); in experiment [6], 0.5 µM (≈ 0.258 µg/mL).

Turning to `CCCCCCCCCCCCN1CCN(c2c(F)cc3c(=O)c(C(=O)O)cn(C4CC4)c3c2OC)CC1` [Compound 20, 1-cyclopropyl-7-(4-dodecylpiperazin-1-yl)-6-fluoro-8-methoxy-4-oxo-1,4-dihydroquinoline-3-carboxylic acid], the “MIC M. tuberculosis H37Rv GyrA D94G” value in experiment [1] was found to be 1.9 µM (≈ 1.01 µg/mL). Also, the “MIC M. tuberculosis H37Rv GyrA A90V” value in [2] was 1.9 µM (≈ 1.01 µg/mL). Also, in experiment [3], the “MIC M. tuberculosis H37Rv GyrB D500N” value worked out at 0.23 µM (≈ 0.122 µg/mL). The MIC in [4], in experiment [5] and in experiment [6] was 0.47 µM (≈ 0.249 µg/mL) throughout.

Regarding `COc1c(N2CCNC(C)C2)c(F)cc2c(=O)c(C(=O)O)cn(C3CC3)c12` (stereo not drawn) [Gatifloxacin, gatifloxacin], the “MIC (M. tuberculosis) D94G” value in experiment [7] is 2.66 µM (≈ 0.999 µg/mL). Moreover, in experiment [8], the “MIC (M. tuberculosis) A90V” value was 5.33 µM (≈ 2 µg/mL).

`CCCCCCCCCCN1CCN(c2cc3c(cc2F)c(=O)c(C(=O)O)cn3C2CC2)CC1` [Quin 9, 1-cyclopropyl-7-(4-decylpiperazin-1-yl)-6-fluoro-4-oxo-1,4-dihydroquinoline-3-carboxylic acid]: the “MIC (M. tuberculosis) D94G” value in experiment [1] was at least 4.8 µM. Also, in [2], the “MIC (M. tuberculosis) A90V” value is at least 4.8 µM.

In the case of `CCCCCCCCN1CCN(c2cc3c(cc2F)c(=O)c(C(=O)O)cn3C2CC2)CC1` [Quin 16, 1-cyclopropyl-6-fluoro-7-(4-octylpiperazin-1-yl)-4-oxo-1,4-dihydroquinoline-3-carboxylic acid], the “MIC (M. tuberculosis) D94G” value in experiment [1] was 13.5 µM (≈ 5.99 µg/mL). For the same molecule, the “MIC (M. tuberculosis) A90V” value in experiment [2] is 6.7 µM (≈ 2.97 µg/mL).

Take `CCCCCN1CCN(c2c(F)cc3c(=O)c(C(=O)O)cn(C4CC4)c3c2OC)CC1` [Quin 17, 1-cyclopropyl-6-fluoro-8-methoxy-4-oxo-7-(4-pentylpiperazin-1-yl)-1,4-dihydroquinoline-3-carboxylic acid]: the “MIC (M. tuberculosis) D94G” value in experiment [1] was over 18.5 µM. Moreover, the “MIC (M. tuberculosis) A90V” value in [2] turned out to be 18.5 µM (≈ 7.98 µg/mL).

For the molecule `CCCCCCCCN1CCN(c2c(F)cc3c(=O)c(C(=O)O)cn(C4CC4)c3c2OC)CC1` [Quin 18, 1-cyclopropyl-6-fluoro-8-methoxy-7-(4-octylpiperazin-1-yl)-4-oxo-1,4-dihydroquinoline-3-carboxylic acid], in [1], the “MIC (M. tuberculosis) D94G” value was determined as 2 µM (≈ 0.947 µg/mL) and the “MIC M. tuberculosis H37Rv GyrA D94G” value was determined as 2 µM (≈ 0.947 µg/mL). In [2], the “MIC (M. tuberculosis) A90V” value worked out at 0.5 µM (≈ 0.237 µg/mL) and the “MIC M. tuberculosis H37Rv GyrA A90V” value came out at 2 µM (≈ 0.947 µg/mL). Also, the “MIC M. tuberculosis H37Rv GyrB D500N” value in experiment [3] is under 0.12 µM. Further, the MIC in [4] was under 0.12 µM. In addition, in experiment [5], the MIC was under 0.12 µM. The same molecule returned an MIC in [6] of 0.12 µM (≈ 0.0568 µg/mL). Moreover, in experiment [9], the “antibacterial activity against quinolone-resistant M. tuberculosis strains (in words)” value was “high antibacterial activity”.

In the case of `CCCCCCCCCCN1CCN(c2c(F)cc3c(=O)c(C(=O)O)cn(C4CC4)c3c2OC)CC1` [Quin 19, 1-cyclopropyl-7-(4-decylpiperazin-1-yl)-6-fluoro-8-methoxy-4-oxo-1,4-dihydroquinoline-3-carboxylic acid], in experiment [1], the “MIC (M. tuberculosis) D94G” value is 1 µM (≈ 0.502 µg/mL) and the “MIC M. tuberculosis H37Rv GyrA D94G” value was found to be 2 µM (≈ 1 µg/mL). Further, in [2], the “MIC (M. tuberculosis) A90V” value is 0.5 µM (≈ 0.251 µg/mL) and the “MIC M. tuberculosis H37Rv GyrA A90V” value was found to be 1 µM (≈ 0.502 µg/mL). Also, in experiment [3], the “MIC M. tuberculosis H37Rv GyrB D500N” value is 0.5 µM (≈ 0.251 µg/mL). This molecule displayed an MIC in experiment [4] of under 0.12 µM. In experiment [5], this molecule displayed an MIC of under 0.12 µM. The MIC in experiment [6] stood at 0.5 µM (≈ 0.251 µg/mL). Besides, the “antibacterial activity against quinolone-resistant M. tuberculosis strains (in words)” value in [9] was “high antibacterial activity”.

With `CCCCCCCCCCCCCCCCN1CCN(c2c(F)cc3c(=O)c(C(=O)O)cn(C4CC4)c3c2OC)CC1` [Quin 20, 1-cyclopropyl-6-fluoro-7-(4-hexadecylpiperazin-1-yl)-8-methoxy-4-oxo-1,4-dihydroquinoline-3-carboxylic acid], the “MIC (M. tuberculosis) D94G” value in [1] is over 13.7 µM. Also, the “MIC (M. tuberculosis) A90V” value in [2] came out at 13.7 µM (≈ 8.03 µg/mL).
